Like-named read-outs stand apart in the source and are kept apart here.
Key:
Assay type in all cases: cell-based
[1] = biological target: EGFR (A767_dupASV) expressing Ba/F3 stable cell line (Homo sapiens, UniProt P00533, DUP767-769, cells depend on it); assay: Cellular proliferation (Alamar Blue) assay, EGFR A767_dupASV Ba/F3; settings: EGFR A767_dupASV Ba/F3, 72 hr, read-out: A767 IC50
Protocol: (§1) Example 3: Cellular Proliferation (Alamar Blue) Assays
(§2) • 1. EGFR(D770_N771insSVD) expressing Ba/F3 stable cell line • 2. EGFR (A767_dupASV) expressing Ba/F3 stable cell line • 3. A431 cells • 4. BTER2 (A775_G776insYVMA) expressing Ba/F3 stable cell line • 5. BTER2 (WT) expressing Ba/F3 stable cell line • 6. BT-474 cells
(§3) • 1. Seed cells at 5000 for A431 and 15,000 cells for Ba/F3 in 100 μL/well in complete media (for A431: DMEM with 10% FBS and for Ba/F3 cells: RPMI with 10% FBS) in 96-well tissue culture plate. Leave outer wells without cells for background measurements. Incubate at 37 degree Celsius in 5% CO2 humidified incubator for 16-18 hours. • 2. Add 0.025 ml of 5× concentration compound dilution or DMSO control. Final compound concentration range is 10-0.0005 μM prepared in 3-fold serial dilutions. Incubate for 72 hr at 37 degree Celsius in […] humidified incubator. • 3. Add 0.0125 mL Alamar Blue™ reagent to each well with multi-channel pipette and tap gently on each side of the plate to mix. Incubate for 3 hours at 37 degree Celsius in […] humidified incubator. • 4. Read plates on fluorescence reader (Tecan Spark Control, Device: Spark, Serial #: 1801006040) at 540 nm excitation, 590 nm emission wavelength. • 5. Data analysis was performed using XLfit 5.5.0.5.

[2] = biological target: EGFR(D770_N771insSVD) expressing Ba/F3 stable cell line (Homo sapiens, UniProt P00533, DUP768-770, cells depend on it); assay: Cellular proliferation (Alamar Blue) assay, EGFR D770_N771insSVD Ba/F3; settings: EGFR D770_N771insSVD Ba/F3, 72 hr, read-out: D770 IC50
Sequence of EGFR(D770_N771insSVD) expressing Ba/F3 stable cell line (P00533 with tags, fused parts or gaps DUP768-770): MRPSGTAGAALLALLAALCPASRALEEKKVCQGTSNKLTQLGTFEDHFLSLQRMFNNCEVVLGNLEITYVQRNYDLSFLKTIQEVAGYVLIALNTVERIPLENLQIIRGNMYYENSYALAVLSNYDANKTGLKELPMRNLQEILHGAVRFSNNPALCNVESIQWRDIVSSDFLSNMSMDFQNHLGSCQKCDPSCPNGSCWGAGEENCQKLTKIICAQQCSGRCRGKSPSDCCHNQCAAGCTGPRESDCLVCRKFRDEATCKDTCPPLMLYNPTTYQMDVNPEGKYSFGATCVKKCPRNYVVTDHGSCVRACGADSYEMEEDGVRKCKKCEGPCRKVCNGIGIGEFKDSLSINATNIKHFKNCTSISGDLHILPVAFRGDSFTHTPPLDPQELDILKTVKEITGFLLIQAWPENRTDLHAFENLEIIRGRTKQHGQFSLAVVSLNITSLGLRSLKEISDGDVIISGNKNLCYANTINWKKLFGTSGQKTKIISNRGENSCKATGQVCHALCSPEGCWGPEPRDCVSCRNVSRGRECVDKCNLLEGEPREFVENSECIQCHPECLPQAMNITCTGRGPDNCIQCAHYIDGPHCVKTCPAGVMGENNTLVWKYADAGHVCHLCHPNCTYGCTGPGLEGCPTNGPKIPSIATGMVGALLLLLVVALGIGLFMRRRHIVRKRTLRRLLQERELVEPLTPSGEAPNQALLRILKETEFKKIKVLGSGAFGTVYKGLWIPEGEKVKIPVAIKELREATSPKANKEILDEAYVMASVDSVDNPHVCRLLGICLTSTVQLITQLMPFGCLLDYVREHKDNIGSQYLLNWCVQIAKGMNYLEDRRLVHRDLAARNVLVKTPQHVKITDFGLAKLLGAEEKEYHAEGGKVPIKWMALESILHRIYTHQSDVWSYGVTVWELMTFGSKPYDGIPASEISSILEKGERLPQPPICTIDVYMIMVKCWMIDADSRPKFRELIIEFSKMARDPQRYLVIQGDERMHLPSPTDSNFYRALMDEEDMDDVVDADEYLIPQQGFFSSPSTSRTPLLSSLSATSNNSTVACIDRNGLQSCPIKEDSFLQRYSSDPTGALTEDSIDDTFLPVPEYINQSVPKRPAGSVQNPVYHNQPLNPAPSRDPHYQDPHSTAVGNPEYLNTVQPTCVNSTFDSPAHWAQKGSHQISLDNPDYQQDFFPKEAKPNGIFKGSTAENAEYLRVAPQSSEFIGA
Protocol: as §1, §2, §3

[3] = system: A431 cells; assay: Cellular proliferation (Alamar Blue) assay, A431; settings: Homo sapiens
Protocol: as §1, §2, §3

[4] = A-431, A431 cells, 72 hr, Alamar Blue, read-out: A431 IC50

Sequence of EGFR (A767_dupASV) expressing Ba/F3 stable cell line (P00533 with tags, fused parts or gaps DUP767-769): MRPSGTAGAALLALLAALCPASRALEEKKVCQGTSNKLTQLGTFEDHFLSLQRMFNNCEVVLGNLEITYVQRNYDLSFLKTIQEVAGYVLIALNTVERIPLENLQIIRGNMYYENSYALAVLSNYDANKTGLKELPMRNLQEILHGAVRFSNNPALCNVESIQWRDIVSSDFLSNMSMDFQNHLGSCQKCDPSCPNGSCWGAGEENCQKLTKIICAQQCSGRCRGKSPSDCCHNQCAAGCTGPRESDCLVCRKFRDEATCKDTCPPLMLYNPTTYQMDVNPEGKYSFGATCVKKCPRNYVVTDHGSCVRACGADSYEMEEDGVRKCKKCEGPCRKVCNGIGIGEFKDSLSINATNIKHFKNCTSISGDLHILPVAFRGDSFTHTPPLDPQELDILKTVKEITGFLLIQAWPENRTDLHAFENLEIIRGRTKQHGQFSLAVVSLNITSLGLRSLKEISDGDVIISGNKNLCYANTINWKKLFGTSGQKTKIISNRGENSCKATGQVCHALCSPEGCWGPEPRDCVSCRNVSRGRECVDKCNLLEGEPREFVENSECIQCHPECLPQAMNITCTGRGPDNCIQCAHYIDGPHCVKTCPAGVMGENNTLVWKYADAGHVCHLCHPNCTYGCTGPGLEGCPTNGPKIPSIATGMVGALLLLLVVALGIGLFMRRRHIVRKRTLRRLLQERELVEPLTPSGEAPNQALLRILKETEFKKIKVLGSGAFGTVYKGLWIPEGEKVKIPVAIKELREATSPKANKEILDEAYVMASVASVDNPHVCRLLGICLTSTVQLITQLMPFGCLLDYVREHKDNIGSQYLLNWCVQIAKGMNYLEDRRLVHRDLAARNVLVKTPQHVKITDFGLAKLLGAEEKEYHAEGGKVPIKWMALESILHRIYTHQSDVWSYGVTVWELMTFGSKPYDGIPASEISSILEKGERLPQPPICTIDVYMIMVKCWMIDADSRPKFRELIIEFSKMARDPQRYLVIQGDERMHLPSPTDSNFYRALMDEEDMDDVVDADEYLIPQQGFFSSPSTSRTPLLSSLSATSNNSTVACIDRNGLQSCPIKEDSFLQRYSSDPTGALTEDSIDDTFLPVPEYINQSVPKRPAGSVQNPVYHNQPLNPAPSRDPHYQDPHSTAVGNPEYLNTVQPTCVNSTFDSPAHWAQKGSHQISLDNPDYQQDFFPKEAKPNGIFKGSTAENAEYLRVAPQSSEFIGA

| Structure (SMILES) | GI50 [1] | GI50 [2] | IC50 [3, 4] | IC50 ([3]; A-431, 72 h, read-out: A431 IC50 (nM)) |
| --- | --- | --- | --- | --- |
| C=CC(=O)Nc1cccc(N2C(=O)N(c3ccccc3)Cc3cnc(Nc4cn(C5CCN(C)CC5)nc4Cl)nc32)c1 [Compound 105, N-(3-(7-((3-chloro-1-(1-methylpiperidin-4-yl)-1H-pyrazol-4-yl)amino)-2-oxo-3-phenyl-3,4-dihydropyrimido[4,5-d]pyrimidin-1(2H)-yl)phenyl)acrylamide] | 12 nM | 14 nM | 3600 nM | – |
| C/C=C/C(=O)Nc1cccc(N2C(=O)N(Cc3ccccc3)Cc3cnc(Nc4cn(C)nc4F)nc32)c1 [Compound 87, (E)-N-(3-(3-benzyl-7-((3-fluoro-1-methyl-1H-pyrazol-4-yl)amino)-2-oxo-3,4-dihydropyrimido[4,5-d]pyrimidin-1(2H)-yl)phenyl)but-2-enamide] | 2240 nM | 1980 nM | > 10000 nM | – |
| CN(C)C/C=C/C(=O)Nc1cccc(N2C(=O)N(Cc3ccccc3)Cc3cnc(Nc4cn(CCF)nc4Cl)nc32)c1 [Compound 93, (E)-N-(3-(3-benzyl-7-((3-chloro-1-(2-fluoroethyl)-1H-pyrazol-4-yl)amino)-2-oxo-3,4-dihydropyrimido[4,5-d]pyrimidin-1(2H)-yl)phenyl)-4-(dimethylamino)but-2-enamide] | 108 nM | 91 nM | ≥ 10000 nM | – |
| COC/C=C/C(=O)Nc1cccc(N2C(=O)N(Cc3ccccc3)Cc3cnc(Nc4cn(C)nc4Cl)nc32)c1 [Compound 76, (E)-N-(3-(3-benzyl-7-((3-chloro-1-methyl-1H-pyrazol-4-yl)amino)-2-oxo-3,4-dihydropyrimido[4,5-d]pyrimidin-1(2H)-yl)phenyl)-4-methoxybut-2-enamide] | 336 nM | 342 nM | ≥ 10000 nM | – |
| CN(C)C/C=C/C(=O)Nc1cccc(N2C(=O)N(Cc3ccccc3)Cc3cnc(Nc4cnc5c(cnn5C)c4)nc32)c1 [Compound 53, (E)-N-(3-(3-benzyl-7-((1-methyl-1H-pyrazolo[3,4-b]pyridin-5-yl)amino)-2-oxo-3,4-dihydropyrimido[4,5-d]pyrimidin-1(2H)-yl)phenyl)-4-(dimethylamino)but-2-enamide] | 474 nM | 1050 nM | ≥ 10000 nM | – |
| C=CC(=O)Nc1cc(N2C(=O)N(Cc3ccccc3)Cc3cnc(Nc4cn(C)nc4Cl)nc32)ccc1OC [Compound 77, N-(5-(3-benzyl-7-((3-chloro-1-methyl-1H-pyrazol-4-yl)amino)-2-oxo-3,4-dihydropyrimido[4,5-d]pyrimidin-1(2H)-yl)-2-methoxyphenyl)acrylamide] | ≥ 10000 nM | 9130 nM | ≥ 10000 nM | – |
| C[C@H](c1ccccc1)N1Cc2cnc(Nc3cnn(C)c3)nc2N(c2cccc(NC(=O)/C=C/CN(C)C)c2)C1=O (single isomer, unassigned) [Compound 133] | 1120 nM | 2690 nM | – | ≥ 10000 nM |
| C=C(OC)C(=O)Nc1cccc(N2C(=O)N(c3ccccc3)Cc3cnc(Nc4cn(C)nc4Cl)nc32)c1 [Compound 127, N-(3-(7-((3-chloro-1-methyl-1H-pyrazol-4-yl)amino)-2-oxo-3-phenyl-3,4-dihydropyrimido[4,5-d]pyrimidin-1(2H)-yl)phenyl)-2-methoxyacrylamide] | ≥ 10000 nM | ≥ 10000 nM | 8170 nM | – |
| C=CC(=O)Nc1cccc(N2C(=O)N(c3ccccc3)Cc3cnc(Nc4cn(C5CCNCC5)nc4Cl)nc32)c1 [Compound 132, N-[3-(7-{[3-chloro-1-(piperidin-4-yl)-1H-pyrazol-4-yl]amino}-2-oxo-3-phenyl-1H,2H,3H,4H-pyrimido[4,5-d][1,3]diazin-1-yl)phenyl]prop-2-enamide] | 960 nM | 973 nM | ≥ 10000 nM | – |

Now from value to molecule, other results behind:

| GI50 [1] | GI50 [2] | IC50 [3, 4] | Structure (SMILES) | IC50 ([3]; A-431, 72 h, read-out: A431 IC50 (nM)) |
| --- | --- | --- | --- | --- |
| 1670 nM | 3860 nM | ≥ 10000 nM | CN(C)C/C=C/C(=O)Nc1cccc(N2C(=O)N(Cc3ccccc3)Cc3cnc(Nc4cnc(N5CCOCC5)nc4)nc32)c1 [Compound 55, (E)-N-(3-(3-benzyl-7-((2-morpholinopyrimidin-5-yl)amino)-2-oxo-3,4-dihydropyrimido[4,5-d]pyrimidin-1(2H)-yl)phenyl)-4-(dimethylamino)but-2-enamide] | – |
| > 9350 nM | 4070 nM | ≥ 10000 nM | CN(C)C/C=C/C(=O)Nc1cccc(N2C(=O)N(Cc3ccccc3)Cc3cnc(Nc4ccncc4)nc32)c1 [Compound 96, (E)-N-(3-(3-benzyl-2-oxo-7-(pyridin-4-ylamino)-3,4-dihydropyrimido[4,5-d]pyrimidin-1(2H)-yl)phenyl)-4-(dimethylamino)but-2-enamide] | – |
| 106 nM | 97 nM | 6500 nM | CN(C)C/C=C/C(=O)Nc1cccc(N2C(=O)N(Cc3ccccc3)Cc3cnc(Nc4cn(C)nc4C(F)(F)F)nc32)c1 [Compound 95, (E)-N-(3-(3-benzyl-7-((1-methyl-3-(trifluoromethyl)-1H-pyrazol-4-yl)amino)-2-oxo-3,4-dihydropyrimido[4,5-d]pyrimidin-1(2H)-yl)phenyl)-4-(dimethylamino)but-2-enamide] | – |
| 255 nM | 885 nM | ≥ 10000 nM | CN(C)C/C=C/C(=O)N(C)c1cccc(N2C(=O)N(c3ccccc3)Cc3cnc(Nc4cn(C)nc4Cl)nc32)c1 [Compound 104, (E)-N-(3-(7-((3-chloro-1-methyl-1H-pyrazol-4-yl)amino)-2-oxo-3-phenyl-3,4-dihydropyrimido[4,5-d]pyrimidin-1(2H)-yl)phenyl)-4-(dimethylamino)-N-methylbut-2-enamide] | – |
| 224 nM | 337 nM | ≥ 10000 nM | CN(C)C/C=C/C(=O)Nc1cccc(N2C(=O)N(Cc3ccccc3)Cc3cnc(Nc4ccc(N5CCOCC5)nc4)nc32)c1 [Compound 54, (E)-N-(3-(3-benzyl-7-((6-morpholinopyridin-3-yl)amino)-2-oxo-3,4-dihydropyrimido[4,5-d]pyrimidin-1(2H)-yl)phenyl)-4-(dimethylamino)but-2-enamide] | – |
| 115 nM | 145 nM | ≥ 10000 nM | CN(C)C/C=C/C(=O)Nc1cccc(N2C(=O)N(Cc3ccccc3)Cc3cnc(Nc4ccc5c(ccn5C)c4)nc32)c1 [Compound 99, (E)-N-(3-(3-benzyl-7-((1-methyl-1H-indol-5-yl)amino)-2-oxo-3,4-dihydropyrimido[4,5-d]pyrimidin-1(2H)-yl)phenyl)-4-(dimethylamino)but-2-enamide] | – |
| 39 nM | 43 nM | ≥ 10000 nM | CN(C)C/C=C/C(=O)Nc1cccc(N2C(=O)N(Cc3ccccc3)Cc3cnc(Nc4cn(C)nc4C(F)F)nc32)c1 [Compound 94, (E)-N-(3-(3-benzyl-7-((3-(difluoromethyl)-1-methyl-1H-pyrazol-4-yl)amino)-2-oxo-3,4-dihydropyrimido[4,5-d]pyrimidin-1(2H)-yl)phenyl)-4-(dimethylamino)but-2-enamide] | – |
| 1700 nM | 2390 nM | ≥ 10000 nM | Cc1nocc1Nc1ncc2c(n1)N(c1cccc(NC(=O)/C=C/CN(C)C)c1)C(=O)N(Cc1ccccc1)C2 [Compound 60, (E)-N-(3-(3-benzyl-7-((3-methylisoxazol-4-yl)amino)-2-oxo-3,4-dihydropyrimido[4,5-d]pyrimidin-1(2H)-yl)phenyl)-4-(dimethylamino)but-2-enamide] | – |
| 2260 nM | 5480 nM | ≥ 10000 nM | COc1cc(CN2Cc3cnc(Nc4cn(C)nc4Cl)nc3N(c3cccc(NC(=O)/C=C/CN(C)C)c3)C2=O)ccn1 [Compound 62, (E)-N-(3-(7-((3-chloro-1-methyl-1H-pyrazol-4-yl)amino)-3-((2-methoxypyridin-4-yl)methyl)-2-oxo-3,4-dihydropyrimido[4,5-d]pyrimidin-1(2H)-yl)phenyl)-4-(dimethylamino)but-2-enamide] | – |
| 1090 nM | 2290 nM | ≥ 10000 nM | CN1CCN(C/C=C/C(=O)Nc2cccc(N3C(=O)N(c4ccccc4)Cc4cnc(Nc5cn(C)nc5Cl)nc43)c2)CC1 [Compound 126, (E)-N-(3-(7-((3-chloro-1-methyl-1H-pyrazol-4-yl)amino)-2-oxo-3-phenyl-3,4-dihydropyrimido[4,5-d]pyrimidin-1(2H)-yl)phenyl)-4-(4-methylpiperazin-1-yl)but-2-enamide] | – |

Reference: patent publication US20230027026A1, “FUSED PYRIMIDINE COMPOUNDS, COMPOSITIONS AND MEDICINAL APPLICATIONS THEREOF” (JUBILANT BIOSYS LIMITED, priority 2019, published 2023)
